From patent US12031150B2, “Methods, compositions and kits for increasing genome editing efficiency” (Vertex Pharmaceuticals Incorporated, priority 2016, dated 2024)
“And” between values parts separate entries of the source, which are not always exact repeats. Equal entries are not always repeated. “Also recorded” adds a separate entry of the source.

Key:
[1] = tested on: HDR efficiency in HEK-293 EGIP cells; experiment: PCR genotyping and gel densitometry quantification of HDR efficiency; assay type: cell-based, human; settings: HEK293-EGIP cells nucleofected with donor template and Cas9-sgRNA; for HDR Editing Efficiency, replicate 1 hdr 1 / HDR Editing Efficiency, replicate 2 hdr 2 / HDR Editing Efficiency, replicate 3 hdr 3 / HDR Editing Efficiency, replicate 4 hdr 4: PCR band densitometry; for HDR Editing Efficiency, Average: average of replicates 1-4
From the text: Genomic DNA isolation, PCR Genotyping, and Gel Quantification: Specially designed PCR primer pairs provided another means to assess HDR-mediated genome editing to obtain functional eGFP positive cells. The genotyping PCR primer pair is shown below, corresponding to SEQ ID NOs: 6 and 7. A 219 bp PCR product corresponds to unmodified cells and a 163 bp nucleotide corresponds to modification through HDR. Intensity of these bands on a >2.5% gel allows for estimation of HDR by densitometry using a Bio-Imager. The technique allows for the relative ranking of improvement of HDR by inhibitors. Intensities measured for each lane were normalized by calculating the ratios of PCR bands corresponding to ‘insertions’ divided by ‘total’ (inserted and unmodified). The fold-change was calculated by comparing the ratio of insertions with compound over that without compound.
Another series of experiments compared increase in HDR efficiency following contact with either Scr7 or Compound 1, a DNAPK inhibitor. For these experiments, HEK293-EGIP cells were nucleofected with donor template only or donor template and Cas9-sgRNA. To test the ability of Scr7 and Compound 1 to enhance HDR editing, cells that had been nucleofected with either donor template alone, or donor template and Cas9-sgRNA were administered either Scr7 or Compound 1.
HDR recombination status was ascertained by traditional “end-point” PCR primer genotyping and quantitation based on agarose band intensities. The primers produced distinct amplicons: a 219 bp nucleotide band corresponded to unmodified cells and a 163 bp nucleotide product for HDR event. Intensity of these bands on a >2.5% gel allows for estimation of HDR by densitometry using a Bio-Imager. The technique allows for the relative ranking of conditions for improvement of HDR by inhibitors of NHEJ. The genotyping PCR primer pairs for these assays is shown below.

[2] = tested on: HDR repair pathway in the HEK293-EGIP cell line; experiment: Traffic light reporter (TLR) assay, HDR efficiency by FACS (GFP positive cells); assay type: cell-based, human; settings: for FACS Analysis - Percent HDR enhancement (gRNA-Cas9 + donor), Mean / FACS Analysis - Percent HDR enhancement (gRNA-Cas9 + donor), single replicate: 2.5 uM compound, HEK293-EGIP; for FACS Analysis - Percent HDR enhancement (gRNA-Cas9 + donor), Mean: mean of three technical replicates; for FACS Analysis - Percent HDR enhancement (gRNA-Cas9 + donor), single replicate: technical replicates 1-3 of one experiment; for fold increase in the amount of CRISPR-genome edited cells (HDR enhancement): compared to transfection in the absence of compound, Table 1, FIG. 2C; for GFP positive cells after transfection of donor repair template and gRNA-Cas9 (qualitative): FIG. 2A FACS dot plots
From the text: Traffic light reporter (TLR) assay: The HEK293-EGIP (Enhanced Green Fluorescent inhibited Protein) stable cell line was purchased from System Biosciences (SBI). The HEK293-EGIP cell line harbors a disrupted GPP coding sequence with a stop codon and a 53-bp genomic fragment from the AAVS1 locus. Cells were maintained in DMEM (Life Technologies, cat. no. 10313-039) with high glucose (Life Technologies, cat. no. 10313-039) supplemented with 10% heat-inactivated FBS (Fetal Bovine Serum, Expression Systems Inc.), Glutamax and Penicillin+Streptomycin and cultured at 37° C. and 5% CO2.
Cell transfection and NHEJ inhibitor treatment: The HEK293-EGIP stable cells were transfected with the two-in-one gRNA/CRISPR-Cas9 dual plasmid vector, plasmid repair donor (both plasmids from System Biosciences). Transfection was carried out using the Amaxa nucleofector system (Lonza) following manufacturer's protocol. After 16 hours, cells were treated with Compound 1 and Scr7 (Excess Bioscience; no. M60082-2s) at various concentrations, including 1 μM, 2.5 μM, 5 μM and 10 μM of compound. The structure of Scr7 is shown as follows:
Cell Sorting and Flow Cytometry: For flow cytometry analysis, HEK293 cells were trypsinized and resuspended in PBS/1% BSA FACS buffer and analyzed with a Fortessa flow cytometer (Becton Dickinson). A portion of cells were centrifuged and used for the isolation of genomic DNA.
Assays were performed to ascertain HDR efficiency in HEK293-EGIP cells. To this end, a bicistronic construct was used that targets the human AAVS1 locus (FIG. 1A). The bicistronic vector system co-expresses human codon optimized Cas9 driven by the EF1 promoter as well as custom guide RNA (gRNA) consisting of a chimeric crRNA-tracrRNA transcript driven by the Hl promoter. The hspCas9 contains two nuclear localization signals (NLS) at the N-terminus and C-terminus to ensure efficient import of the hspCas9 protein into the nucleus. The hspCas9 open reading frame (ORF) is followed by a regulatory element called WPRE (Woodchuck virus post-transcriptional regulatory element) to boost gene expression and stabilize the mRNA transcript.
The engineered human cell line, EGIP HEK293 was used to monitor HDR efficiency using the bicistronic construct described above and in FIG. 1A. The EGIP HEK293 reporter cell line was purchased from SBI. The HEK293-EGIP cell line harbors a disrupted GFP coding sequence with a stop codon and a 53-bp genomic fragment from the AAVS1 locus. The stable line was generated by lentiviral infection of 293T cells with an EF1alpha promoter to drive the expression of eGFP followed by puromycin selection. The eGFP sequence was modified to insert a 56 nucleotide insert (uppercase) from the human AAVS1 safe harbor site. This sequence contains a stop codon (TAA in red) after amino acid T109 in the eGFP translated sequence. The guide sequences targeted are in bold letters. Upon transfection with the guide and donor, the AAVS1 site within the broken eGFP was cut and the donor construct provided a homologous sequence to repair the eGFP, by removing the stop codon and the AAVS1 insert. Edited cells which had undergone HDR donor repair will generate GFP positive cells. Accordingly, co-transfecting Cas9, gRNA targeting AAVS1 and a AAVS1/EGFP rescue donor restored the sequence by HDR to give GFP+ cells.
The population of GFP positive cells was directly proportional with the efficiency of the homology directed repair (FIG. 1B).
For these assays, two-in-one Cas9-sgRNAs and eGFP donor template vectors were introduced into the HEK293 EGIP cells by electroporation using the Amaxa nucleofector (Lonza) to drive the synthesis of Cas9-sgRNAs and the eGFP donor template. Compounds were added 16 h post transfection followed by media change 48 hours later. Cells were then allowed to propagate for an additional 72 hours before FACS analysis. […]

[3] = tested on: HDR repair pathway in the HEK293-EGIP cell line; experiment: as above; assay type: cell-based, human; settings: for increase in the amount of CRISPR-genome edited HEK-EGIP cells: 2.5 μM, 24 hours, in comparison to the gRNA-Cas9 and donor template condition only, FIG. 2A; for GFP positive cells: flow cytometry 10 days post transfection, 10 μM, FIG. 4
[4] = tested on: Serpin A1 gene in Huh7 hepato cellular carcinoma cells; experiment: SerpinA1 gene editing assay (KpnI site introduction, PCR and Kpn digest); assay type: cell-based; settings: Huh7 cells nucleofected with gRNA, Cas9 protein, donor repair template; 2.5 pM Compound 1 for three days; vs DMSO; FIG. 5
Experimental: Assays were performed to ascertain the ability of a DNAPK inhibitor to allow for the editing of a target gene. For these assays, the editing of the Serpin A1 gene from M to Z form was assessed. To this end, Huh7 hepato cellular carcinoma cells were nucleofected with gRNA and Cas9 protein, with or without a donor repair template in which a KpnI site was introduced. The nucleofected cells were then cultured in the presence of DMSO or 2.5 pM Compound 1 for three days, following which, the genomic DNA was amplified and assessed for the introduction of the Kpn site.
The assay works as follows: when the SerpinA1 gene is edited, Kpn endonuclease is able to digest the gene fragment, resulting in the appearance of a digested band on a gel only when the SerpinA1 gene is edited. Conversely, when the SerpinA1 is not edited, the Kpn endonuclease is not able cut the gene fragment, and thus there will not be an appearance of a new, digested band on a gel.

SMILES | HDR Editing Efficiency, replicate 1 hdr 1 [1] | HDR Editing Efficiency, replicate 2 hdr 2 [1] | HDR Editing Efficiency, replicate 3 hdr 3 [1] | HDR Editing Efficiency, replicate 4 hdr 4 [1] | HDR Editing Efficiency, Average [1] | FACS Analysis - Percent HDR enhancement (gRNA-Cas9 + donor), Mean [2] | FACS Analysis - Percent HDR enhancement (gRNA-Cas9 + donor), single replicate [2] | fold increase in the amount of CRISPR-genome edited cells (HDR enhancement) ([2]; 2.5 μM) | GFP positive cells after transfection of donor repair template and gRNA-Cas9 (qualitative) [2] | increase in the amount of CRISPR-genome edited HEK-EGIP cells [3] | GFP positive cells [3] | gene editing of the SerpinA1 gene (introduction of Kpn site, digested band on gel) [4] | fold better HDR enhancement compared to transfection with Scr7 ([2]; 2.5 μM, two separate experiments in triplicates, FIGS. 2B and 2C) | fold increase in HDR enhancement compared to SCR7 ([2]; 10 μM Compound 3, experiments in triplicates, compared to transfection in the presence of SCR7)
Oc1nc(S)nc(/N=C/c2ccccc2)c1/N=C/c1ccccc1 [Scr7, reference compound] | 1.3 and 14.1 and 5.8 | 18.2 and 22.7 and 21.8 | 16.6 and 20.2 and 21.3 | 16.4 and 28.1 and 23 | 13.125 and 21.275 and 17.975 | 0.32% | 0.16% and 0.62% and 0.19% | ~2.3 fold | increase in GFP positive cells | approximately 30% | about 0.5% | – | – | –
CNC(=O)c1ccnc2c([C@H](C)CNc3cc(-c4cnc(C)nc4)ncn3)cccc12 [Compound 1, (5)-N-methyl-8-(1-((2′-methyl-[4,5′-bipyrimidin]-6-yl)amino)propan-2-yl)quinoline-4-carboxamide] | 8.4 and 4.3 and 4.9 | 29 and 27.4 (2×) | 27.5 and 58.3 and 29.8 | 27.6 and 40 and 25.1 | 23.125 and 32.5 and 21.8 | 0.64% | 0.44% and 6.82% and 0.65% | ~4.5 fold | increase in GFP positive cells | approximately 83% | – | allowed for gene editing in comparison to the DMSO condition; also recorded: resulted in gene editing of the SerpinA1 gene | 2 fold | –
CNC(=O)c1ccnc2c([C@H](C)CNc3cc(-c4ccc(C)nc4)ncn3)cccc12 [Compound 3] | – | – | – | – | – | – | – | – | – | – | 4% | – | – | about 8 fold
